Measured values taken from patent EP0857177B1, “PROCESS FOR THE PREPARATION OF A SINGLE CHAIN FV ANTIBODY FRAGMENT” (Novartis AG, priority 1995, dated 1997).

Tested on: anti-phOx-scFv (αphOx15-scFv with c-myc tag), purified monomeric, expressed in Sf9 insect cells
Test: Surface plasmon resonance (BIAcore) measurement of the monovalent interaction between immobilised scFv and phOx
Format: binding
Settings: monomeric anti-phOx-scFv amine-coupled to CM5 sensor chip (2160 RU); phOx offered as analyte phOx20.5BSA in HBS pH 7.4; BSA background RU subtracted; derived from differential RU at different phOx concentrations; error of 12.6% for the slope
Protocol: A second independent assay is employed to confirm the low affinity of the monovalent interaction between anti-phOx-scFv and phOx. Surface plasmon resonance signals (Kretschmann, E. and Raether, H. (1968) Z. Naturforsch. 23a, 2135-2136; Liedberg, et al., (1983) Sensors and Actuators 4, 299-304) are recorded with a BlAcore machine (Pharmacia Biosensor AB; Jönsson, et al., (1991) BioTechniques 11, 620-627; Chaiken, et al., (1992) Anal. Biochem. 201, 197-210). Purified monomeric anti-phOx-scFv at a concentration of 40 µg/ml in 5 mM maionic acid pH 6.0 / 0.05% [v/v] Tween-20 is coupled to a CM5 sensor chip using the Amine Coupling Kit (Pharmacia) as described earlier (Johnsson, et al., (1991) Anal. Biochem. 198, 268-277). Via amino groups, 2160 RU of the purified monomeric anti-phOx-scFv is immobilised to the sensor chip (i.e., about 2 ng/mm^2 chip surface; Stenberg, et al., (1991) J. Colloid Interface Sci. 143, 513-526).The activation time is adjusted to 7 min at a flow rate of 5 µl/min. For immobilisation 35 µl of the scFv sample are injected to the chip at the same flow rate. […]
Since a notable background binding of BSA to the modified chip is observed, it is indispensable to record the scFv binding events for both analytes phOx20.5BSA and BSA. […] KD can be derived from the differential RU measured at different phOx concentrations before dissociation is initiated.

CCO/C=C1/N=C(c2ccccc2)OC1=O [phOx]
Kd: 84.7 µM
